Experimental data from ChEMBL document CHEMBL3352766, “Weakly anti-inflammatory limonoids from the seeds of Xylocarpus rumphii” (J Nat Prod, 2014).
pIC50: −log10 of the molar value. The source made the active and inactive calls. The calls are words filed in the database; no cut-off is given here.

Tested on: J774.A1
Assay: Antiinflammatory activity in mouse J774.A1 cells assessed as inhibition of LPS-induced NO production treated 2 hrs before LPS challenge measured after 20 hrs
Type: functional, cell-based

pIC50	SMILES
4.54	COc1ccc2c(c1)c(CC(=O)O)c(C)n2C(=O)c1ccc(Cl)cc1 [INDOMETHACIN]
4.61	CC[C@H](C)C(=O)O[C@H]1[C@@]23O[C@]4(O)[C@@](C)([C@@H](CC(=O)OC)C(C)(C)[C@H](OC(=O)C(C)C)[C@]14O)[C@H]2CC[C@]1(C)[C@H]3CC(=O)O[C@H]1c1ccoc1
4.50	CC[C@H](C)C(=O)O[C@H]1C(C)(C)[C@H](CC(=O)OC)[C@@]2(C)[C@H]3CC[C@]4(C)C(=CC(=O)O[C@H]4c4ccoc4)[C@]34O[C@@]2(O)[C@@]1(O)[C@H]4OC(=O)[C@@H](C)CC

Tested on: J774.A1
Assay: Antiinflammatory activity in mouse J774.A1 cells assessed as inhibition of LPS-induced NO production at 50 uM treated 2 hrs before LPS challenge measured after 20 hrs
Type: functional, cell-based

SMILES	inhibition
COC(=O)C[C@H]1C(C)(C)[C@H](OC(C)=O)[C@]2(O)[C@@H](OC(=O)C(C)C)[C@@]34O[C@]2(O)[C@]1(C)[C@H]3CC[C@]1(C)[C@H]4CC(=O)O[C@H]1c1ccoc1	inactive
COC(=O)C[C@H]1[C@]2(C)C[C@@]34OC5(C)O[C@]6([C@@H]7[C@H](O)C(=O)O[C@@H](c8ccoc8)[C@]7(C)CC[C@]6(O5)[C@]13C)[C@H](OC(C)=O)[C@@]4(OC(C)=O)[C@H]2OC(C)=O	inactive
COC(=O)C[C@H]1C(C)(C)[C@H](OC(=O)C(C)C)[C@@H]2[C@@H](OC(=O)C(C)C)[C@@]34O[C@]2(O)[C@]1(C)[C@H]3CC[C@]1(C)[C@H]4CC(=O)O[C@H]1c1ccoc1	inactive
CC[C@H](C)C(=O)O[C@@H]1[C@H]2[C@@H](OC(=O)C(C)C)C(C)(C)[C@H](CC(=O)OC)[C@@]3(C)[C@H]4CC[C@]5(C)[C@@H](CC(=O)O[C@H]5c5ccoc5)[C@@]14O[C@@]23O	inactive
CC[C@H](C)C(=O)O[C@H]1C(C)(C)[C@H](CC(=O)OC)[C@@]2(C)[C@H]3CC[C@]4(C)C(=CC(=O)O[C@H]4c4ccoc4)[C@]34O[C@@]2(O)[C@@]1(O)[C@H]4OC(=O)C(C)C	inactive
CC[C@H](C)C(=O)O[C@H]1C(C)(C)[C@H](CC(=O)OC)[C@@]2(C)[C@H]3CC[C@]4(C)[C@@H](CC(=O)O[C@H]4c4ccoc4)[C@]34O[C@@]2(O)[C@@]1(O)[C@H]4OC(=O)[C@@H](C)CC	inactive
